Results: patent US5602146A, “4-iminoquinolines, processes for their preparation, and their use” (Hoechst Aktiengesellschaft, priority 1992, dated 1997)
Values after ≈ are worked out from the molar mass of the structure shown.

Experiments:
[1] = molecular target: T1, HIV "Reverse Transcriptase" (Human immunodeficiency virus type 1 group M subtype B, UniProt P04585); test: Inhibition of HIV "Reverse Transcriptase" (Scintillation Proximity Assay); format: biochemical; conditions: RT-SPA, RT from HIV cloned in E. coli, 60 minutes (37° C.)
T1 construct: purchased HT-Biotechnology Ltd., Cambridge, UK; host or cells: E. coli
Experimental: Investigation of the substances for inhibition of HIV "Reverse Transcriptase"
The activity of reverse transcriptase (RT) was determined with the aid of a "Scintillation Proximity Assay" (SPA). The reagent kit for the RT-SPA was obtained from Amersham/Buchler (Braunschweig). The enzyme RT (from HIV cloned in E. coli) originated from HT-Biotechnology Ltd., Cambridge, UK.
The test was carried out in accordance with the method manual of the manufacturer Amersham--with the following modifications:
bovine serum albumin was added to the "assay" buffer to the final concentration of 0.5 mg/ml.
the test was carried out in Eppendorf reaction vessels with a batch volume of […].
the RT concentrate of the manufacturer (5000 U/ml) was diluted to an activity of 15 U/ml in tris-HCl buffer 20 mM; pH 7.2; 30% of glycerol.
the incubation time for the batches was 60 minutes (37° C.).
after the reaction had been stopped and after "development" with the bead suspension, […] of the batch were transferred to 4.5 ml of tris-HCl buffer, 10 mM; pH 7.4; 0.15M NaCl, and the tritium activity was measured in a β-counter.
Testing of the substances:
For a preliminary test of the inhibitor activity, the substances were dissolved in dimethyl sulfoxide (stock solution c=1 mg/ml) and tested in a dilution in dimethyl sulfoxide of 10^-1, 10^-2, 10^-3 and the like to determine IC50 values, the inhibitor stock solutions were further diluted in tris-HCl buffer, 50 mM, pH 8 and tested in suitable concentrations. The concentration associated with 50% enzyme inhibition was determined from the graph of RT activity against Log Cinh.

HIV = test: Testing of preparations against HIV in a cell culture (T-Cell culture assay); format: cell-based; conditions: Human immunodeficiency virus 1, 72 h; HIV-infected lymphocytes, 37° C. for 3 days; lowest concentration at which no giant cells occurred; read-out: T-Cell culture assay Minimum inhibitory concentration
Experimental: Testing of preparations against HIV in a cell culture
Description of the method
The complete medium additionally contains 20% of fetal calf serum and 40 IU/ml of recombinant interleukin 2. Cells:
Lymphocytes isolated from fresh donor blood by means of Ficol® gradient centrifugation are cultured, with addition of […] of phytohemagglutinin (Wellcome) in the complete medium at 37° C. under 5% of CO2 for 36 hours. After addition of 10% of dimethyl sulfoxide, the cells are frozen at a cell density of 5×10^6 and stored in liquid nitrogen. For the experiment, the cells are thawed, washed in RPMI medium and cultured in the complete medium for 3-4 days.
The test preparations were dissolved in dimethyl sulfoxide in a concentration of 16.7 mg/ml and diluted to 1 mg/ml in complete medium.
0.4 ml of medium was initially introduced into 24-well multiwell dishes. After addition of 0.1 ml of the dissolved preparation into the upper row of the dish, a geometric dilution series was produced by transferring in each case 0.1 ml. Preparation-free controls always contained 0.4 ml of complete medium with 0.5% of dimethyl sulfoxide.
Lymphocyte cultures having a cell count of 5×10^5 cells/ml were infected by addition of 1/50 of the volume of supernatant from HIV-infected lymphocyte cultures. The titer of these culture supernatants was determined by end point dilution with 1-5×10^6 infectious units/ml. After incubation at 37° C. for 30 minutes, the infected lymphocytes were centrifuged off and taken up again in the same volume of medium. In each case 0.6 ml of this cell suspension was introduced into each of the depression walls of the test plate. The batches were incubated at 37° C. for 3 days.
The infected cell cultures were examined under the microscope for the presence of giant cells, which indicate active multiplication of the virus in the culture. The lowest concentration of preparation at which no giant cells occurred was determined as the inhibitory concentration against HIV. As a control, the supernatants from the culture plates were investigated for the presence of the HIV antigen with the aid of an HIV antigen test in accordance with the manufacturer's information (Organon).

Compound	IC50 [1] [nM]	MIC (HIV) [µg/mL]	Reverse transcriptase assay IC50 [1] [µg/mL]
CC1(C)C(=S)Nc2ccc(Cl)cc2C1=NOCc1ccccc1Cl [Example 30]	264 to 2640	–	–
COCCON=C1c2cc(Cl)ccc2NC(=S)C1(C)C [Example 33]	~32	0.2 (≈ 0.639 µM)	–
CCON=C1c2cc(Cl)ccc2NC(=S)C1(C)C [Example 3, anti-6-Chloro-3,3-dimethyl-4-(ethyloxyimino)-l,3-dihydroquinoline-2-thione]	14.1	0.008 (≈ 0.0283 µM)	–
CC(C)=NN=C1c2cc(Cl)ccc2NC(=S)C1(C)C [Example 62]	3.4 to 34	0.04 (≈ 0.136 µM)	–
CC1(C)C(=S)Nc2ccc(Cl)cc2C1=NOCc1ccccc1[N+](=O)[O-] [Example 21]	256 to 2560	–	–
C=CCON=C1c2cc(Cl)ccc2NC(=O)C1(C)C [Example 47]	35.9 to 359	–	–
CSCCON=C1c2cc(Cl)ccc2NC(=S)C1(C)C [Example 50]	30.4 to 304	0.2 (≈ 0.608 µM)	–
CCON=C1c2cc(Cl)ccc2NC(=O)C12CCC2 [Example 114]	21.5	–	–
CCON=C1c2cc(OCC)ccc2NC(=NO)C1(C)C [Example 124]	~343	0.4 (≈ 1.37 µM)	–
CC1(C)C(=O)Nc2ccc(Cl)cc2C1=NOCc1ccccc1Cl [Example 29]	2750 to 27500	–	–
COc1ccc2c(c1)C(=NOC(C)C)C(C)(C)C(=O)N2 [Example 44]	~36.2	–	–
COCCON=C1c2cc(Cl)ccc2NC(=O)C1(C)C [Example 32]	337 to 3370	1 (≈ 3.37 µM)	–
CCON=C1c2cc(Cl)ccc2NC(=S)C12CCC2 [Example 115]	3.39 to 33.9	0.04 (≈ 0.136 µM)	–
CSCCON=C1c2cc(Cl)ccc2NC(=O)C1(C)C [Example 49]	320 to 3200	–	–
CCON=C1c2cc(Cl)ccc2NC(=O)C1CC (stereo not drawn) [Example 39]	37.5 to 375	1 (≈ 3.75 µM)	–
CC1(C)C(=S)Nc2ccc(Cl)cc2C1=NOCc1ccc(Cl)cc1 [Example 27]	2640 to 26400	–	–
CC1(C)C(=S)Nc2ccc(Cl)cc2C1=NOCc1cccc(Cl)c1 [Example 24]	26.4 to 264	–	–
CC(C)ON=C1c2cc(Cl)ccc2NC(=S)C12CCC2 [Example 120]	3.24 to 32.4	–	–
CCC1C(=O)Nc2ccc(Cl)cc2C1=NOC(C)C (stereo not drawn) [Example 40]	35.6 to 356	–	–
C=CCON=C1c2cc(Cl)ccc2NC(=S)C1(C)C [Example 48]	3.39 to 33.9	0.04 (≈ 0.136 µM)	–
CC(C)ON=C1c2cc(Cl)ccc2NC(=S)C1(C)C [Example 7, anti-6-Chloro-3,3-dimethyl-4-(isopropyloxyimino)-l,3-dihydroquinoline-2-thione]	20.2	0.008 (≈ 0.027 µM)	–
CCON=C1c2cc(Cl)ccc2NC(=O)C1(C)C [Example 2, anti-6-Chloro-3,3-dimethyl-4-(ethyloxyimino)-1,3-dihydroquinolin-2-one]	82.5	0.2 (≈ 0.75 µM)	–
CC1(C)C(=O)Nc2ccc(Cl)cc2C1=NOCc1cccc(Cl)c1 [Example 23]	275 to 2750	–	–
CCC1(CC)C(=O)Nc2ccc(Cl)cc2C1=NOC(C)C [Example 119]	3.24 to 32.4	0.008 (≈ 0.0259 µM)	–
CCC1C(=O)Nc2ccc(Cl)cc2C1=NO (stereo not drawn) [Example 38]	4190 to 41900	–	–
CCON=C1c2cc(Cl)ccc2NC(=NO)C1(C)C [Example 70, anti-6-Chloro-3,3,-dimethyl-4-(ethyloxyimino)-2-hydroxyimino-1,3-dihydroquinoline]	3.55 to 35.5	–	–
COc1ccc2c(c1)C(=NOC(C)C)C(C)(C)C(=S)N2 [Example 45]	3.42 to 34.2	–	–

Compound	IC50 [1] [nM]	MIC (HIV) [µg/mL]	Reverse transcriptase assay IC50 [1] [µg/mL]
CCON=C1c2cc(Cl)ccc2NC(=S)C12CCCC2 [Example 122]	–	0.008 (≈ 0.0259 µM)	–
CC1(C)C(=O)N(Cc2ccccc2)c2ccc(Cl)cc2C1=NOCc1ccccc1 [Example 10B, anti-(1-Benzyl)-4-(benzyloxyimino)-6-chloro-3,3-dimethyl-1,3-dihydroquinolin-2-one]	> 23900	–	–
CCC(C)ON=C1c2cc(Cl)ccc2NC(=S)C1(C)C (stereo not drawn) [Example 67]	32.2 to 322	0.04 (≈ 0.129 µM)	–
CSc1ccc2c(c1)C(=NOC(C)C)C(C)(C)C(=O)N2 [Example 78]	34.2 to 342	–	–
CC1(C)C(=O)Nc2ccc(Cl)cc2C1=NOCc1ccccc1 [Example 10A, anti-4-(Benzyloxyimino)-6-chloro-3,3-dimethyl-1,3-dihydroquinolin-2-one]	> 30400	–	–
CCON=C1c2cc(OC)ccc2NC(=S)C1(C)C [Example 43]	3.59 to 35.9	–	–
CCON=C1c2cc(Cl)ccc2N=C(Nc2ccc(Cl)cc2)C1(C)C [Example 132]	~266	–	–
CCON=C1c2cc(Cl)ccc2N=C(Nc2ccccc2)C1(C)C [Example 131]	29.3 to 293	1 (≈ 2.93 µM)	–
CCCON=C1c2cc(Cl)ccc2NC(=O)C1(C)C [Example 8, anti-6-Chloro-3,3-dimethyl-4-(n-propyloxyimino)-l,3-dihydroquinolin-2-one]	35.6 to 356	0.2 (≈ 0.712 µM)	–
CC(C)ON=C1c2cc(Cl)ccc2NC(=S)C12CCCC2 [Example 117]	3.1 to 31	–	–
CON=C1c2cc(Cl)ccc2NC(=S)C1(C)C [Example 35]	3.72 to 37.2	–	–
CSc1ccc2c(c1)C(=NOC(C)C)C(C)(C)C(=S)N2 [Example 82]	32.4 to 324	< 0.08	–
CON=C1c2cc(Cl)ccc2NC(=O)C1(C)C [Example 34]	39.6 to 396	–	–
C#CCON=C1c2cc(Cl)ccc2NC(=O)C1(C)C [Example 51]	36.1 to 361	–	–
CC1(C)C(=S)Nc2ccc(Cl)cc2C1=NOCc1ccccc1 [Example 16]	290 to 2900	–	–
CCON=C1c2cc(Cc3ccncc3)ccc2NC(=S)C1(C)C [Example 104]	~29.5	0.04 (≈ 0.118 µM)	–
CCON=C1c2cc(Cl)ccc2NC(=O)C1(C)C [Example 4, syn-6-Chloro-3,3-dimethyl-4-(ethyloxyimino)-l,3-dihydroquinolin-2-one]	37.5 to 375	–	–
CC(C)ON=C1c2cc(Cl)ccc2NC(=O)C12CCCC2 [Example 123]	3.26 to 32.6	–	–
CCON=C1c2cc(Cc3ccncc3)ccc2NC(=O)C1(C)C [Example 103]	30.9 to 309	0.04 (≈ 0.124 µM)	–
CCC1C(=N)c2cc(Cl)ccc2NC1=S (stereo not drawn) [Example 42]	4190 to 41900	–	–
CCC(C)ON=C1c2cc(Cl)ccc2NC(=O)C1(C)C (stereo not drawn) [Example 52]	33.9 to 339	–	–
CCCON=C1c2cc(Cl)ccc2NC(=S)C1(C)C [Example 9, anti-6-Chloro-3,3-dimethyl-4-(n-propyloxyimino)-1,3dihydroquinoline-2-thion]	3.37 to 33.7	0.04 (≈ 0.135 µM)	–
CC(C)ON=C1c2cc(Cl)ccc2NC(=O)C1(C)C [Example 6, anti-6-Chloro-3,3-dimethyl-4-(isopropyloxyimino)-l,3dihydroquinolin-2-one]	3.56 to 35.6	0.008 (≈ 0.0285 µM)	–
anti-6-Chloro-3,3-dimethyl-4-(isopropylazino)-1,3-dihydroquinolin-2-one [Example 12]	–	–	0.01 to 0.1
CC(C)ON=C1c2cc(OC(F)(F)F)ccc2NC(=S)C1(C)C [Example 87]	28.9 to 289	0.04 (≈ 0.115 µM)	–
CC1(C)C(=O)Nc2ccc(Cl)cc2C1=NOCc1ccccc1[N+](=O)[O-] [Example 20]	2680 to 26800	–	–
CCON=C1c2cc(Cl)ccc2NC(=S)C1(C)C [Example 5, syn-6-Chloro-3,3-dimethyl-4-(ethyloxyimino)-1,3-dihydroquinoline-2-thione]	–	–	0.001 to 0.01
